Tests used:
[1] = system: MOLT-4; assay: Growth inhibition of human MOLT4 cells assessed as cell growth at 1 uM incubated for 48 hrs by sulforhodamine B assay relative to control; assay type: functional; settings: MOLT-4, 48 h, read-out: Activity
[2] = system: SW-620; assay: Growth inhibition of human SW620 cells assessed as cell growth at 1 uM incubated for 48 hrs by sulforhodamine B assay relative to control; assay type: functional; settings: SW-620, 48 h, read-out: Activity
[3] = system: OVCAR-8; assay: Growth inhibition of human OVCAR8 cells incubated for 48 hrs by sulforhodamine B assay; assay type: functional, cell-based; settings: OVCAR-8, 48 h
[4] = system: HT-29; assay: Growth inhibition of human HT-29 cells incubated for 48 hrs by sulforhodamine B assay; assay type: functional, cell-based; settings: HT-29, 48 h
[5] = system: MDA-MB-435; assay: Growth inhibition of human MDA-MB-435 cells assessed as cell growth at 1 uM incubated for 48 hrs by sulforhodamine B assay relative to control; assay type: functional; settings: MDA-MB-435, 48 h, read-out: Activity
[6] = system: OVCAR-5; assay: Growth inhibition of human OVCAR5 cells assessed as cell growth at 0.01 uM incubated for 48 hrs by sulforhodamine B assay relative to control; assay type: functional; settings: OVCAR-5, 48 h, read-out: Activity
[7] = system: BT-549; assay: Growth inhibition of human BT549 cells incubated for 48 hrs by sulforhodamine B assay; assay type: functional, cell-based; settings: BT-549, 48 h
[8] = system: HCT-15; assay: Growth inhibition of human HCT15 cells assessed as cell growth at 0.1 uM incubated for 48 hrs by sulforhodamine B assay relative to control; assay type: functional; settings: HCT-15, 48 h, read-out: Activity
[9] = system: SK-MEL-28; assay: Growth inhibition of human SK-MEL-28 cells assessed as cell growth at 0.01 uM incubated for 48 hrs by sulforhodamine B assay relative to control; assay type: functional; settings: SK-MEL-28, 48 h, read-out: Activity
[10] = system: A549; assay: Growth inhibition of human A549/ATCC cells assessed as cell growth at 0.01 uM incubated for 48 hrs by sulforhodamine B assay relative to control; assay type: functional; settings: A549, 48 h, read-out: Activity
[11] = system: CCRF-CEM; assay: Growth inhibition of human CCRF-CEM cells incubated for 48 hrs by sulforhodamine B assay; assay type: functional, cell-based
[12] = system: MDA-MB-231; assay: Growth inhibition of human MDA-MB-231 cells assessed as cell growth at 1 uM incubated for 48 hrs by sulforhodamine B assay relative to control; assay type: functional; settings: MDA-MB-231, 48 h, read-out: Activity
[13] = system: SN12C; assay: Growth inhibition of human SN12C cells assessed as cell growth at 0.01 uM incubated for 48 hrs by sulforhodamine B assay relative to control; assay type: functional; settings: read-out: Activity
[14] = system: MDA-MB-468; assay: Growth inhibition of human MDA-MB-468 cells assessed as cell growth at 0.01 uM incubated for 48 hrs by sulforhodamine B assay relative to control; assay type: functional; settings: MDA-MB-468, 48 h, read-out: Activity
[15] = system: OVCAR-8; assay: Growth inhibition of human OVCAR8 cells assessed as cell growth at 0.1 uM incubated for 48 hrs by sulforhodamine B assay relative to control; assay type: functional; settings: OVCAR-8, 48 h, read-out: Activity
[16] = system: A498; assay: Growth inhibition of human A498 cells assessed as cell growth at 1 uM incubated for 48 hrs by sulforhodamine B assay relative to control; assay type: functional; settings: A498, 48 h, read-out: Activity
[17] = system: RXF 393; assay: Growth inhibition of human RXF393 cells assessed as cell growth at 1 uM incubated for 48 hrs by sulforhodamine B assay relative to control; assay type: functional; settings: RXF 393, 48 h, read-out: Activity
[18] = system: SNB-75; assay: Growth inhibition of human SNB75 cells assessed as cell growth at 1 uM incubated for 48 hrs by sulforhodamine B assay relative to control; assay type: functional; settings: SNB-75, 48 h, read-out: Activity
[19] = system: HCT-15; assay: Growth inhibition of human HCT15 cells incubated for 48 hrs by sulforhodamine B assay; assay type: functional, cell-based; settings: HCT-15, 48 h
[20] = system: SF-268; assay: Growth inhibition of human SF268 cells assessed as cell growth at 0.01 uM incubated for 48 hrs by sulforhodamine B assay relative to control; assay type: functional; settings: SF-268, 48 h, read-out: Activity
[21] = system: SN12C; assay: Growth inhibition of human SN12C cells incubated for 48 hrs by sulforhodamine B assay; assay type: functional, cell-based
[22] = system: HT-29; assay: Growth inhibition of human HT-29 cells assessed as cell growth at 0.1 uM incubated for 48 hrs by sulforhodamine B assay relative to control; assay type: functional; settings: HT-29, 48 h, read-out: Activity
[23] = system: HT-29; assay: Growth inhibition of human HT-29 cells assessed as cell growth at 10 uM incubated for 48 hrs by sulforhodamine B assay relative to control; assay type: functional; settings: HT-29, 48 h, read-out: Activity
[24] = system: NCI-H322M; assay: Growth inhibition of human NCI-H322M cells assessed as cell growth at 100 uM incubated for 48 hrs by sulforhodamine B assay relative to control; assay type: functional; settings: read-out: Activity
[25] = system: UO-31; assay: Growth inhibition of human UO31 cells assessed as cell growth at 0.1 uM incubated for 48 hrs by sulforhodamine B assay relative to control; assay type: functional; settings: UO-31, 48 h, read-out: Activity
[26] = system: K562; assay: Growth inhibition of human K562 cells assessed as cell growth at 0.1 uM incubated for 48 hrs by sulforhodamine B assay relative to control; assay type: functional; settings: K562, 48 h, read-out: Activity
[27] = system: DU-145; assay: Growth inhibition of human DU145 cells assessed as cell growth at 0.1 uM incubated for 48 hrs by sulforhodamine B assay relative to control; assay type: functional; settings: DU-145, 48 h, read-out: Activity
[28] = system: BT-549; assay: Growth inhibition of human BT549 cells assessed as cell growth at 100 uM incubated for 48 hrs by sulforhodamine B assay relative to control; assay type: functional; settings: BT-549, 48 h, read-out: Activity
[29] = read-out: LC50 (the source's name)
[30] = read-out: pLC50 (the source's name) (converted)

Compound COc1cc(Cl)cc(-c2nn(-c3cccc(NC(=O)Nc4cccc(C(F)(F)F)c4)c3)cc2-c2ccncc2)c1 has a growth at 1 µM [1] of 55%, a growth at 1 µM [2] of 74% and a GI50 ([3]; read-out: GI50) of 1.12 µM. It also gave a CC50 [3, 29] greater than 100 µM, a TGI ([3]; read-out: TGI) of 45.8 µM and a GI50 ([3]; read-out: pGI50 (converted)) of 1.12 µM. For the same compound, the CC50 [3, 30] was greater than 100 µM, the TGI ([3]; read-out: pTGI (converted)) was 4.9 µM and the GI50 ([4]; read-out: GI50) was 1.51 µM. It also gave a CC50 [4, 29] of 25.1 µM, a TGI ([4]; read-out: TGI) of 52.4 µM and a GI50 ([4]; read-out: pGI50 (converted)) of 1.51 µM. It also gave a CC50 [4, 30] of 26.3 µM, a TGI ([4]; read-out: pTGI (converted)) of 6.31 µM and a growth at 1 µM [5] of 85%. It also gave a growth at 0.01 µM [6] of 94%, a GI50 ([7]; read-out: GI50) of 2.22 µM and a CC50 [7, 29] greater than 100 µM. It also gave a TGI ([7]; read-out: TGI) of 55 µM, a GI50 ([7]; read-out: pGI50 (converted)) of 2.24 µM and a CC50 [7, 30] greater than 100 µM. The TGI ([7]; read-out: pTGI (converted)) was 5.62 µM, the growth at 0.1 µM [8] was 83% and the growth at 0.01 µM [9] was 99%. For the same compound, the growth at 0.01 µM [10] was 100%, the GI50 ([11]; read-out: GI50) was 1.2 µM and the CC50 [11, 29] was greater than 100 µM. The TGI ([11]; read-out: TGI) was 53.6 µM, the GI50 ([11]; read-out: pGI50 (converted)) was 1.2 µM and the CC50 [11, 30] was greater than 100 µM. The TGI ([11]; read-out: pTGI (converted)) was 5.37 µM, the growth at 1 µM [12] was 71% and the growth at 0.01 µM [13] was 101%. For the same compound, the growth at 0.01 µM [14] was 94%, the growth at 0.1 µM [15] was 99% and the growth at 1 µM [16] was 75%. For the same compound, the growth at 1 µM [17] was 68%, the growth at 1 µM [18] was 68% and the GI50 ([19]; read-out: GI50) was 1.34 µM. It also gave a CC50 [19, 29] of 50 µM, a TGI ([19]; read-out: TGI) of 10.6 µM and a GI50 ([19]; read-out: pGI50 (converted)) of 1.35 µM. It also gave a CC50 [19, 30] of 50.1 µM, a TGI ([19]; read-out: pTGI (converted)) of 10.7 µM and a growth at 0.01 µM [20] of 97%. It also gave a GI50 ([21]; read-out: GI50) of 2.06 µM, an LC50 ([21]; read-out: LC50) greater than 100 µM and a TGI ([21]; read-out: TGI) of 15.5 µM. It also gave a GI50 ([21]; read-out: pGI50 (converted)) of 2.04 µM, an LC50 ([21]; read-out: pLC50 (converted)) greater than 100 µM and a TGI ([21]; read-out: pTGI (converted)) of 18.6 µM. For the same compound, the growth at 0.1 µM [22] was 95%, the growth at 10 µM [23] was 5.75% and the growth at 100 µM [24] was -8%. For the same compound, the growth at 0.1 µM [25] was 50%, the growth at 0.1 µM [26] was 94% and the growth at 0.1 µM [27] was 99%. It also gave a growth at 100 µM [28] of -48%.
With COc1cc(Cl)cc(-c2nn(-c3cccc(NC(=O)Nc4ccc(Cl)c(Cl)c4)c3)cc2-c2ccncc2)c1 the growth at 1 µM [1] was 70%, the growth at 1 µM [2] was 93% and the GI50 ([3]; read-out: GI50) was 2.3 µM. For the same compound, the CC50 [3, 29] was greater than 100 µM, the TGI ([3]; read-out: TGI) was 11.2 µM and the GI50 ([3]; read-out: pGI50 (converted)) was 2.29 µM. It also gave a CC50 [3, 30] greater than 100 µM, a TGI ([3]; read-out: pTGI (converted)) of 11.2 µM and a CC50 [4, 29] greater than 100 µM. For the same compound, the GI50 ([4]; read-out: pGI50 (converted)) was 2.4 µM, the CC50 [4, 30] was greater than 100 µM and the TGI ([4]; read-out: pTGI (converted)) was 9.12 µM. For the same compound, the growth at 1 µM [5] was 85%, the growth at 0.01 µM [6] was 93% and the GI50 ([7]; read-out: GI50) was 2.52 µM. The CC50 [7, 29] was greater than 100 µM, the TGI ([7]; read-out: TGI) was 62.5 µM and the GI50 ([7]; read-out: pGI50 (converted)) was 2.63 µM. The CC50 [7, 30] was greater than 100 µM, the TGI ([7]; read-out: pTGI (converted)) was 8.32 µM and the growth at 0.1 µM [8] was 53%. The growth at 0.01 µM [9] was 101%, the growth at 0.01 µM [10] was 99% and the GI50 ([11]; read-out: GI50) was 2 µM. For the same compound, the CC50 [11, 29] was greater than 100 µM, the TGI ([11]; read-out: TGI) was 50 µM and the GI50 ([11]; read-out: pGI50 (converted)) was 2 µM. The CC50 [11, 30] was greater than 100 µM, the TGI ([11]; read-out: pTGI (converted)) was 6.03 µM and the growth at 1 µM [12] was 85%. The growth at 0.01 µM [13] was 97%, the growth at 0.01 µM [14] was 95% and the growth at 0.1 µM [15] was 101%. The growth at 1 µM [16] was 73%, the growth at 1 µM [17] was 75% and the growth at 1 µM [18] was 71%. The GI50 ([19]; read-out: GI50) was 2.51 µM, the CC50 [19, 29] was greater than 100 µM and the TGI ([19]; read-out: TGI) was 31.5 µM. The GI50 ([19]; read-out: pGI50 (converted)) was 2.51 µM, the CC50 [19, 30] was greater than 100 µM and the TGI ([19]; read-out: pTGI (converted)) was 31.6 µM. For the same compound, the growth at 0.01 µM [20] was 95%, the GI50 ([21]; read-out: GI50) was 3.1 µM and the LC50 ([21]; read-out: LC50) was greater than 100 µM. For the same compound, the TGI ([21]; read-out: TGI) was greater than 100 µM, the GI50 ([21]; read-out: pGI50 (converted)) was 3.09 µM and the LC50 ([21]; read-out: pLC50 (converted)) was greater than 100 µM. It also gave a TGI ([21]; read-out: pTGI (converted)) greater than 100 µM, a growth at 0.1 µM [22] of 91% and a growth at 10 µM [23] of 7.39%. It also gave a growth at 100 µM [24] of 3%, a growth at 0.1 µM [26] of 58% and a growth at 0.1 µM [27] of 97%. It also gave a growth at 100 µM [28] of -15%.
